The values that follow come from publication PMC3593252 (ACS medicinal chemistry letters, 2013).

The test system of data set [1] is acetylated tubulin, acetylated histone H3, acetylated histone H4 and p21 in MDA-MB-231 cell lines. Briefly: Western blot analysis in MDA-MB-231 cell line. It counts as cell-based. In general terms: A western blot detects proteins with antibodies after separation by electrophoresis.
The subject of the next data set is U937 xenograft. Description: U937 xenograft model in vivo antitumor assay.
Data set [2] relates to class IIa HDACs (MDA-MB-231 cell lysate). To be noted: class IIa-specific substrate, NA: not active at 10 μM.

For `CCCC(CCC)C(=O)N[C@H](COc1ccc(/C=C/C(=O)NO)cc1OC)Cc1c[nH]c2ccccc12` [Compound 17a], the “effect on acetylated tubulin level” value in data set [1] (1 μM, 3 h and 24 h, MDA-MB-231, compared with SAHA) is recorded as “almost no effect”. In data set [1] (1 μM, 3 h vs 24 h, MDA-MB-231), the “effect on histone H4 acetylation with time” value is listed as “maintained even increased”. For the same compound, the “effects on the levels of histone acetylation and p21 expression” value in data set [1] (1 μM, MDA-MB-231, especially after 24 h of treatment) is recorded as “comparable even superior to SAHA”. Moreover, the “cell permeability (by monitoring intracellular acetylation levels)” value in data set [1] (MDA-MB-231 cell line) is reported as “cell permeable”. Moreover, the “toxic signs in liver and spleen” value with U937 xenograft (U937 xenograft mice, once daily by oral gavage for three weeks) was “no evident toxic signs in liver and spleen”. Besides, in the data set with U937 xenograft (mouse, in vivo, po), the body weight loss entry is on record as “no significant body weight loss”. Also, the “IC50 class IIa cell lysate” value in data set [2] was “no obvious inhibition”.
